Experimental findings from patent publication US9556217B2, “Amphiphilic compounds” (WISCONSIN ALUMNI RESEARCH FOUNDATION, priority 2012, dated 2017) are described below.

Test [1] deals with T1, wild type β2AR (β2AR WT) (Homo sapiens, UniProt P07550).
T1 construct: made in house; host or cells: Sf9 insect cells (baculovirus); lysed cells and membranes extracted directly with amphiphile
The test is described as follows: β2AR WT activity after extraction ([3H]-dihydroalprenolol binding). The format is biochemical. The following applies: for β2AR WT initial activity: extracted with 1 wt % or 2 wt % amphiphile; for β2AR WT activity over 72 hours: solubilized samples stored at 4° C. As for the experimental part: In the examples discussed above, conventional detergents such as DDM were used to extract IMPs from the membrane, and then in most cases the solution of detergent-solubilized protein was diluted with amphiphile-containing solutions to evaluate the new agents. With this approach it is possible that the small amount of residual conventional detergent could affect protein stability. To exclude this possibility, GLC-3 and GDN were used to extract wild type β2AR (β2AR WT) (Kobilka, Trends in Pharmacological Sciences 2011, 32, 213-218) from the membrane. Receptor activity was measured via a binding assay involving the antagonist [^3H]-dihydroalprenolol. […] GDN is therefore highly suitable for GPCR extraction.
(§1) A gene encoding amino-terminally FLAG epitope tagged β2AR was expressed in Sf9 cells by baculovirus, with no ligand present during culture. Cells were infected at a density of 4×10^6 cells/mL and then cultured for 48 hours prior to harvesting by centrifugation. Cells were resuspended and lysed by osmotic shock with a low ionic strength buffer (20 mM Tris pH 7.5, 1 mM EDTA). The lysed cells were aliquoted 35 mg per aliquot, then frozen. For extraction tests, 300 μL of solubilization buffer (20 mM HEPES pH 7.5, 100 mM NaCl) containing each amphiphile was added to each aliquot, which was then homogenized by pipet followed by grinding with a glass dounce tissue homogenizer. After two-hour incubation at 4° C., samples were centrifuged at maximum speed in a tabletop microcentrifuge to pellet insoluble material. Supernatant was removed and assayed for protein concentration by DC protein assay (Bio-Rad).
The amount of functional receptor was quantified by incubation for 1 hour with 10 nM 3H dihydroalprenolol. Samples were then separated by gel filtration over G-50 resin and radioactivity was quantified by liquid scintillation. Nonspecific binding was measured in the presence of 10 μM alprenolol. Assays were performed in triplicate at time points indicated. G-50 filtration was performed in buffer containing 20 mM HEPES pH 7.5, 100 mM NaCl, 10-fold CMC of the detergent tested. All binding assays were performed with ice cold buffers.

The subject of test [2] is membrane proteins. Kind of test: Retention of extracted membrane proteins in soluble form in micelles (summary). An excerpt: The amphiphiles were thus evaluated as membrane protein solubilizers and stabilizers and they compared very favorably with DDM, a standard reagent in the field. Compared to DDM, for example, one of the evaluated amphiphiles forms micelles at one-tenth of the concentration required for DDM. Compared with DDM, GDN performs similarly for extracting membrane proteins from membranes, and stably retains the proteins in a soluble form within the micelles for substantially longer (>3 weeks) than DDM. Such improved stability (without sacrificing extraction efficiency) is a valuable trait for research tool amphiphiles.
The amphiphiles described herein require lower concentrations than many commonly used surfactants to form stable micelles.

Test [3] relates to LHI-RC superassembly. The test is described as follows: Extraction of LHI-RC superassembly from membranes. The arrangement: species or system R. capsulatus. The settings on record: 2 wt % GDN. How it is done:
(§2) The favorable MelB extraction performance of GDN led to the examination of this amphiphile for extraction of other IMPs. […] DDM and GDN were used to extract a CMP-Sia fusion protein bearing green fluorescent protein (GFP) at the C-terminus, after expression in Saccharomyces cerevisiae; the amount of solubilized protein was estimated by total fluorescence. GDN (2 wt %), DDM (1 wt %) and OG (1 wt %) gave ˜70%, ˜80% and ˜50% extraction yields, respectively.
(§3) The procedure was performed according to the protocol reported by Chae and coworkers (Nat. Methods 2010, 7, 1003-1008).
The solubilization and stability of the R. capsulatus superassembly were assessed according to the published protocol (Chae et al., J. Am. Chem. Soc. 2010, 132, 16750-16752). Briefly, specialized photosynthetic membranes obtained from an engineered strain of Rhodobacter (R.) capsulatus, U43[pUHTM86Bgl], lacking the LHII light-harvesting complex, were used. Solubilization of the LHI-RC superassembly began by thawing, homogenizing, and incubating frozen aliquots of R. capsulatus membranes at 32° C. for 30 min. Subsequent 30-min incubation was performed after adding DDM or LDAO at 1.0 wt % or GDN at 2.0 wt % in the solid form. […] To assess solubilization efficiency, UV-Vis spectra of the solubilized protein solutions were measured in a range of 650˜950 nm.

Test [4] has as its system R. capsulatus LHI-RC superassembly. Kind of test: R. capsulatus LHI-RC superassembly stability (A875/A680). The settings on record: CMC+0.04 wt %, RT, 875 nm/680 nm absorbance ratio. The arrangement: species or system Rhodobacter capsulatus. As for the experimental part:
Next a more challenging system, the photosynthetic superassembly from Rhodobacter capsulatus (Laible et al., Biochemistry 2003, 42, 1718-1730), was analyzed. This photosynthetic superassembly contains the light harvesting I (LHI) complex and the reaction center (RC) complex. The superassembly contains >30 protein molecules; integrity can be assessed based on the 875 nm/680 nm absorbance ratio (Chae et al., ChemBioChem 2008, 9, 1706-1709). The superassembly was extracted from the native membrane with 1.0 wt % DDM and purified with DDM at its CMC (0.009 wt %). […]
The stability of R. capsulatus superassembly was assessed according to the protocol described by Chae and coworkers (J. Am. Chem. Soc. 2010, 132, 16750-16752).
For the stability assay, DDM-solubilized material was transferred into a new microcentrifuge tube containing Ni-NTA resin (Qiagen, Inc.; Valencia, Calif.; pre-equilibrated and stored in an equal volume of buffer containing 10 mM Tris, pH 7.8, and 100 mM NaCl). After a 1 h incubation at 4° C. for binding, the resins were washed twice with 0.5 mL of binding buffer (a pH 7.8 Tris solution containing DDM at 1×CMC) and eluted three times with 0.20 mL elution buffer aliquots containing 1 M imidazole (otherwise, this buffer was identical to binding buffer; the pH of each solution was readjusted to pH=7.8). […]

For test [5], the target named is T2, β2AR WT (Homo sapiens, UniProt P07550).
T2 construct: made in house; host or cells: Sf9 insect cells (baculovirus); lysed cells and membranes extracted directly with amphiphile
T2 sequence (P07550 whole entry): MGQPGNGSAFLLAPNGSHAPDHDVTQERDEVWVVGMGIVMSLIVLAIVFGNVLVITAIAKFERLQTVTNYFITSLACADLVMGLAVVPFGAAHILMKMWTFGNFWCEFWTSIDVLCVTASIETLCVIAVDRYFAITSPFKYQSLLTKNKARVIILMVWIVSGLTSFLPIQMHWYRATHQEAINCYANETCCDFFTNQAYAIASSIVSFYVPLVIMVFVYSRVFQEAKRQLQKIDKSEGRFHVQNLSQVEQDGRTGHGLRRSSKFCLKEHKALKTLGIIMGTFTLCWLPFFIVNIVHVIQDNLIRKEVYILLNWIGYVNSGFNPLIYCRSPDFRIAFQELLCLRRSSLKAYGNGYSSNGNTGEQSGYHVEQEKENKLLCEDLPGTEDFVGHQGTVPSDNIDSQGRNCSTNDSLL
The test is described as follows: Extraction of β2AR WT from insect cell membranes. The settings on record: 1 or 2 wt %; western blotting. As for the experimental part:
as §2, §3
as §1, with “Supernatant was removed and assayed for protein concentration by DC protein assay (Bio-Rad).” left out

T1 sequence (P07550 whole entry): as above

Consider `CCCCCCCCCCCCO[C@@H]1O[C@H](CO)[C@@H](O[C@H]2O[C@H](CO)[C@@H](O)[C@H](O)[C@H]2O)[C@H](O)[C@H]1O` [DDM, dodecyl-β-D-maltoside, reference compound], for which the “β2AR WT initial activity” value in test [1] ([3H]-dihydroalprenolol binding) was “low initial activity”. Besides, in test [1], the “β2AR WT activity over 72 hours” value is given as “rapidly decomposed”. Besides, in test [2], the “Time until stabilized protein activity began to decay” value is given as “a few hours or a few days”.

Turning to `C[C@@H]1CC[C@@]2(OC1)O[C@H]1C[C@H]3[C@@H]4CC=C5C[C@@H](OCCC(CO[C@@H]6OC(CO)[C@@H](O[C@H]7OC(CO)[C@@H](O)C(O)C7O)C(O)C6O)CO[C@@H]6OC(CO)[C@@H](O[C@H]7OC(CO)[C@@H](O)C(O)C7O)C(O)C6O)CC[C@]5(C)[C@H]4CC[C@]3(C)[C@@H]1[C@@H]2C` (some centres unmarked) [GDN, glyco-diosgenin], the “LHI-RC superassembly extraction compared with 1 wt % DDM” value in test [3] was “Comparable results”. In test [1] ([3H]-dihydroalprenolol binding), the “β2AR WT initial activity, increase relative to DDM” value was above 3 fold and the “β2AR WT initial activity” value is on record as “high initial activity”. The “β2AR WT activity over 72 hours” value in test [1] is given as “did not vary over 72 hours”. The “Time proteins are stably retained in soluble form within the micelles” value in test [2] is on record as above 3 weeks. In addition, the “LHI-RC superassembly stability over 20 days relative to DDM or OG” value in test [4] is listed as “substantially more stable”. Besides, the “β2AR WT extraction compared with 1 wt % DDM” value in test [5] is listed as “more effective than was 1 wt % DDM”.

Turning to `CO[C@@H]1CC[C@@]2(C)[C@H](CC[C@@H]3[C@@H]2CC[C@]2(C)[C@@H]([C@H](C)CCCOCC(C)(CO[C@@H]4OC(CO)C(O[C@@H]5OC(CO)[C@@H](O)[C@H](O)C5O)[C@@H](O)C4O)CO[C@@H]4OC(CO)[C@@H](O[C@H]5OC(CO)[C@@H](O)[C@H](O)C5O)[C@H](O)C4O)CC[C@@H]32)C1` (some centres unmarked) [GLC-2], the “LHI-RC superassembly stability over 20 days relative to DDM or OG” value in test [4] was “substantially more stable”.
